Laboratory results taken from article PMC11986180, “ZIF-8 Selective Dispersive Solid-Phase Extraction-LC-MS/MS Method for the Determination of Aconitine alkaloids in Rat Plasma: Application in Pharmacokinetic Studies” (Journal of Analytical Methods in Chemistry, 2025).
Read-outs that look alike come from different tables or passages of the source.

Columns and labels:
[1] = Pharmacokinetics of aconitine alkaloids in rat plasma after oral administration of Fuzi extract (d-SPE-LC-MS/MS); assay type: in vivo, Sprague–Dawley rats; conditions: for AUC(0-inf) / AUC(0-t) / half-life / MRT last / MRT inf / Tmax: n = 6, oral (gastric gavage) 10 mg/kg Fuzi extract; for half-life: one-compartment model; for MRT last: read-out: MRT0-t; for MRT inf: read-out: MRT0-∞; for Cmax: oral 10 mg/kg Fuzi extract, read-out: maximum concentrations (Cmax); for Tmax: 10 mg/kg
Experimental: Male Sprague–Dawley rats (250–300 g, 8–10 weeks old) were procured from Shenzhen Bao'an Authentic TCM Therapy Hospital (Guangzhou, China) and acclimatized in a controlled environment (temperature: 25°C ± 2°C; humidity: 50% ± 5%; 12-h dark–light cycle) for at least 3 days before experimentation (Animal License Number: SCXK [Guangdong] 2022-0002). Laboratory animal compound feed (Guangdong Feeding Certificate: 2019, No. 05,073) was provided. All animal experiments were performed in accordance with the Guide for the Care and Use of Laboratory Animals by the National Institutes of Health. Ethical approval for the animal studies was obtained from the Ethics Committee of Sinopharm Dongfeng General Hospital. The animal protocols used in this study were approved by the Institutional Animal Care and Use Committee of Sinopharm Dongfeng General Hospital.
The crude powder of Fuzi (50 g) was decocted in 500 mL of water for 1 h to obtain the crude extract, which was then concentrated to 100 mL and stored at 4°C.
All rats were maintained under standard conditions with ad libitum access to food and water. They were divided into two groups: Group 1 was used to prepare blank plasma samples, and Group 2 was designated for pharmacokinetic studies. Drug-free rat plasma was collected via suborbital venous hemorrhage. Pharmacokinetic studies involved continuous blood sampling from the suborbital venous plexus, as described previously. Each rat was administered a 10 mg/kg dose of Fuzi extract via gastric gavage. Blood samples (200 μL) were collected at […] time points (0, 0.25, 0.50, 0.75, 1.0, 2.0, 3.0, 4.0, 6.0, 8.0, 10, 12, and 24 h postadministration) for pharmacokinetic analysis. The samples were collected into microtubes containing 5 μL of heparin, followed by centrifugation at 4000 rpm for 10 min. The resulting plasma ([…]) was separated and immediately frozen at −20°C for further analysis. Figure 2 illustrates the typical d-SPE–LC/MS profile of blank plasma and aconitine alkaloids, showing distinct peaks in rat plasma at 1 h postadministration without interference from endogenous peaks, thus maintaining a stable baseline for analyte and IS detection.
Before solid-phase extraction, ZIF-8 was activated by placing it in a vacuum-drying oven at 60°C for 24 h to remove surface-adsorbed water and other volatile substances. Rat plasma (100 μL) was combined with 350 μL of a 50% acetonitrile–water solution and 50 μL of yohimbine (IS). Following this, 15 mg of ZIF-8 was added to the mixture, which was then shaken for 18 min for extraction. After centrifugation, the adsorbent remained in the tube while the supernatant was discarded. Subsequently, 1000 μL of methanol was added to the tube, and ultrasonic elution of the nanocomposite was performed for 5 min. After centrifugation to collect the ZIF-8 nanocomposites, 900 μL of the eluent was evaporated using N2 flow at 40°C. The resulting residue was redissolved in 50 μL of methanol to obtain the final sample solution and analyzed by HPLC–MS/MS. The extraction process for aconitine alkaloids is depicted in Figure 3.
The pharmacokinetic parameters of aconitine alkaloids in rats were calculated using Phoenix WinNonlin 8.3 software. The maximum plasma concentration (Cmax) and the time to reach Cmax (Tmax) were directly derived from the experimental data. The elimination rate constant (Ke) was determined by linear regression of the terminal semilogarithmic plot of plasma concentration versus time, and the elimination half-life (t1/2) was calculated as 0.693/Ke. All data are presented as mean ± standard deviation.
The plasma concentrations of five aconitine alkaloid species from Fuzi were quantified using the present method. The peak plasma concentrations of aconitine, hypaconitine, mesaconitine, lappaconitine, and benzoylaconitine were reached within 0.75 h, indicating rapid absorption into the systemic circulation. […]

[2] = assay type: physicochemical, rat
Experimental: Aconitine, hypaconitine, mesaconitine, lappaconitine, benzoylaconitine, and yohimbine were individually dissolved in 10 mL of methanol to prepare the stock solution. These compounds were subsequently diluted with methanol to achieve final concentrations of 10 and 5.0 μg/mL to prepare the working standard solutions, which were stored at 4°C before use. Under the optimized conditions, 10 μL of the working standard solution and IS (5.0 μg/mL), along with 15 mg of ZIF-8, was added to 200 μL of blank rat plasma and various blank tissue homogenates. The final concentrations of the calibration standard samples were 0.3125, 0.625, 1.5625, 3.125, 6.25, 12.5, 25, 50, 100, 500, and 1000 ng/mL. Plasma quality control (QC) samples were prepared at concentrations of 0.625, 6.25, 10, and 50 ng/mL. Standard calibration samples and HPLC–MS samples were stored at −20°C until analysis.
Stability tests were conducted to replicate real-world conditions that samples are likely to encounter. […]

[3] = male, Sprague-Dawley, rat, plasma, po, read-out: Tmax
[4] = Automatic (24 h), plasma QC 6.25 ng/mL
[5] = Automatic (24 h), plasma QC 50 ng/mL
[6] = Freeze (−80°C for 30 d), plasma QC 6.25 ng/mL
[7] = Freeze (−80°C for 30 d), plasma QC 50 ng/mL
[8] = Freeze-thaw (three times), plasma QC 6.25 ng/mL
[9] = Freeze-thaw (three times), plasma QC 50 ng/mL
[10] = Room temperature (8 h), plasma QC 6.25 ng/mL
[11] = Room temperature (8 h), plasma QC 50 ng/mL

Structure (SMILES)	AUC(0-inf) ([1]; male, Sprague-Dawley)	AUC(0-t) ([1]; male, Sprague-Dawley)	half-life ([1]; male, Sprague-Dawley)	MRT last ([1]; male, Sprague-Dawley)	MRT inf ([1]; male, Sprague-Dawley)	Cmax ([1]; male, Sprague-Dawley)	Tmax [1, 3]	Tmax [1]	Stability RE % [2, 4]	Stability RE % [2, 5]	Stability RE % [2, 6]	Stability RE % [2, 7]	Stability RE % [2, 8]	Stability RE % [2, 9]	Stability RE % [2, 10]	Stability RE % [2, 11]	also measured
CCN1C[C@]2(COC)[C@H](O)C[C@H](OC)[C@@]34[C@@H]5C[C@@]6(O)[C@H](OC(=O)c7ccccc7)[C@@H]5[C@@](OC(C)=O)([C@@H]([C@H](OC)[C@H]23)[C@@H]14)[C@@H](O)[C@@H]6OC [Aconitine]	26.9 ± 0.696 ng·h/mL	25.3 ± 0.566 ng·h/mL	346 ± 20.9 min	7.11 ± 0.143 h	8.59 ± 0.349 h	7.47 ± 0.732 ng/mL	≤ 45 min	30 min	4.19%	−10.01%	4.94%	−9.37%	3.96%	−8.46%	−1.08%	−8.69%	–
CCN1CC2(COC)C(O)CC(OC)C34C5CC6(O)C(OC)C(O)C(O)(C5C6OC(=O)c5ccccc5)C(C(OC)C23)C14 (stereo not shown) [Benzoylaconitine]	14.1 ± 9.31 ng·h/mL	3.76 ± 0.0401 ng·h/mL	3740 ± 3440 min	9.95 ± 0.374 h	87.9 ± 79.7 h	0.939 ± 0.199 ng/mL	–	15 min	−8.67%	−9.65%	−7.70%	−10.48%	−6.91%	−10.57%	−7.89%	−7.98%	–
COC[C@@]12CC[C@H](OC)[C@]34C(C([C@H](OC)[C@H]13)[C@]1(OC(C)=O)[C@H]3[C@@H](OC(=O)c5ccccc5)[C@](O)(C[C@H]34)[C@@H](OC)[C@@H]1O)N(C)C2 [Hypaconitine]	80.5 ± 2.91 ng·h/mL	47.3 ± 1.33 ng·h/mL	1270 ± 30.3 min	8.627 ± 0.0519 h	27.6 ± 0.562 h	9.92 ± 0.33 ng/mL	≤ 45 min	30 min	−8.00%	1.32%	−3.27%	−2.50%	0.31%	3.47%	−7.92%	−7.90%	–
CCN1CC2(OC(=O)c3ccccc3NC(C)=O)CCC(OC)C34C1C(CC23)C1(O)CC(OC)C2CC4C1(O)C2OC (stereo not shown) [Lappaconitine]	2.421 ± 0.0223 ng·h/mL	2.4 ± 0.0276 ng·h/mL	230 ± 47.4 min	4.47 ± 0.0814 h	4.71 ± 0.206 h	1.28 ± 0.121 ng/mL	≤ 45 min	30 min	–	–	–	–	–	–	–	–	Stability RE % ([2]; Automatic (24 h), plasma QC 3.125 ng/mL): −0.82%; Stability RE % ([2]; Automatic (24 h), plasma QC 25 ng/mL): −7.41%; Stability RE % ([2]; Freeze (−80°C for 30 d), plasma QC 3.125 ng/mL): −0.68%; Stability RE % ([2]; Freeze (−80°C for 30 d), plasma QC 25 ng/mL): −9.65%; Stability RE % ([2]; Freeze-thaw (three times), plasma QC 3.125 ng/mL): −2.04%; Stability RE % ([2]; Freeze-thaw (three times), plasma QC 25 ng/mL): −10.40%; Stability RE % ([2]; Room temperature (8 h), plasma QC 3.125 ng/mL): −0.52%; Stability RE % ([2]; Room temperature (8 h), plasma QC 25 ng/mL): −6.67%
COCC12CN(C)C3C4C(OC)C1C3(C(OC)CC2O)C1CC2(O)C(OC)C(O)C4(OC(C)=O)C1C2OC(=O)c1ccccc1 (stereo not shown) [Mesaconitine]	8.11 ± 0.46 ng·h/mL	7.7 ± 0.411 ng·h/mL	321 ± 33.7 min	5.69 ± 0.188 h	7.03 ± 0.479 h	1.71 ± 0.0446 ng/mL	≤ 45 min	45 min	−9.09%	−9.89%	−7.23%	−9.46%	−1.29%	−7.50%	0.97%	−12.74%	–
